Measured values taken from article PMC12030706, “Novel ^177Lu-Labeled [Thz^14]Bombesin(6–14) Derivatives with Low Pancreas Accumulation for Targeting Gastrin-Releasing Peptide Receptor-Expressing Cancer” (Pharmaceuticals, 2025).

What was measured:
[1] = Ex vivo biodistribution in PC-3 tumor-bearing mice; conditions: mouse; for tissue uptake at 24 h: 24 h post-injection; for tissue uptake at 72 h: 72 h post-injection; for tissue uptake at 120 h: 120 h post-injection; for tissue uptake at 4 h: 4 h post-injection
Experimental: (§1) SPECT/CT imaging experiments were performed using an MILabs (Houten, The Netherlands) U-SPECT-II/CT scanner with a custom-made ultra-high-sensitivity big mouse collimator (2 mm pinhole size) following previously reported procedures. […] Male NOD.Cg-Rag1^tm1Mom Il2rg^tm1Wjl/SzJ (NRG) mice were used in these experiments because of their immunodeficient characteristics and excellent radiation tolerance. Mice were anaesthetized and subcutaneously implanted with 5 × 10^6 PC-3 prostate cancer cells (100 µL; 1:1 PBS/Matrigel) behind the left shoulder. SPECT/CT imaging and biodistribution studies were performed once the tumors reached a diameter of 5–8 mm, typically after approximately 4 weeks of growth.
(§2) For ex vivo biodistribution studies, the mice were injected with ~2–6 MBq of the radioligand. […] Blocking study was conducted at 1 h post-injection via co-injection of the radioligand with 100 μg of [D-Phe^6,Leu-NHEt^13,des-Met^14]Bombesin(6–14). Organs/tissues of interested were collected, weighed, and measured using an automatic gamma counter.

PC-3 tumor-bearing mice = assay: Ex vivo biodistribution in PC-3 tumor-bearing mice
Experimental: as §1, §2

[2] = small intestine, Uptake in small intestine
[3] = 1 h blocked (co-injected with 100 µg [D-Phe6,Leu-NHEt13,des-Met14]Bombesin(6-14))
[4] = 1 h post-injection, 100 µg [D-Phe6,Leu-NHEt13,des-Met14]Bombesin(6–14)

tissue uptake at 24 h ([1]; liver, Uptake in liver): 0.13 ± 0.04 %ID/g
tissue uptake at 72 h ([1]; liver, Uptake in liver): 0.07 ± 0.01 %ID/g
tissue uptake at 120 h ([1]; liver, Uptake in liver): 0.04 ± 0.01 %ID/g
tissue uptake at 24 h ([1]; lungs, Uptake in lungs): 0.07 ± 0.03 %ID/g
tissue uptake at 1 h ([1]; muscle, Uptake in muscle, 1 h post-injection): 0.15 ± 0.02 %ID/g
tissue uptake at 24 h ([1]; muscle, Uptake in muscle): 0.01 %ID/g
tissue uptake at 72 h ([1]; muscle, Uptake in muscle): 0.01 %ID/g
tissue uptake at 1 h ([1]; pancreas, 100 ug, Uptake in pancreas, 1 h blocked (co-injected with 100 µg [D-Phe6,Leu-NHEt13,des-Met14]Bombesin(6-14))): 2.71 ± 0.76 %ID/g
tissue uptake at 1 h ([1]; pancreas, Uptake in pancreas, 1 h post-injection): 11.1 ± 1.37 %ID/g
tissue uptake at 4 h ([1]; pancreas, Uptake in pancreas): 4.91 ± 0.63 %ID/g
tissue uptake at 24 h ([1]; pancreas, Uptake in pancreas): 3.1 ± 0.48 %ID/g
tissue uptake at 120 h ([1]; pancreas, Uptake in pancreas): 0.34 ± 0.04 %ID/g
tissue uptake at 1 h ([1]; small intestine, 100 ug, Uptake in small intestine, 1 h blocked (co-injected with 100 µg [D-Phe6,Leu-NHEt13,des-Met14]Bombesin(6-14))): 0.49 ± 0.14 %ID/g
tissue uptake at 1 h ([1]; small intestine, Uptake in small intestine, 1 h post-injection): 2.01 ± 0.13 %ID/g
tissue uptake at 4 h [1, 2]: 0.56 ± 0.2 %ID/g
tissue uptake at 24 h [1, 2]: 0.3 ± 0.1 %ID/g
tissue uptake at 1 h ([1]; spleen, 100 ug, Uptake in spleen, 1 h blocked (co-injected with 100 µg [D-Phe6,Leu-NHEt13,des-Met14]Bombesin(6-14))): 0.21 ± 0.05 %ID/g
tissue uptake at 1 h ([1]; spleen, Uptake in spleen, 1 h post-injection): 0.28 ± 0.05 %ID/g
tissue uptake at 4 h ([1]; spleen, Uptake in spleen): 0.15 ± 0.03 %ID/g
tissue uptake at 72 h ([1]; spleen, Uptake in spleen): 0.1 ± 0.02 %ID/g
tissue uptake at 120 h ([1]; spleen, Uptake in spleen): 0.05 ± 0.01 %ID/g
tissue uptake at 1 h ([1]; stomach, 100 ug, Uptake in stomach, 1 h blocked (co-injected with 100 µg [D-Phe6,Leu-NHEt13,des-Met14]Bombesin(6-14))): 0.17 ± 0.1 %ID/g
tissue uptake at 1 h ([1]; stomach, Uptake in stomach, 1 h post-injection): 0.99 ± 0.21 %ID/g
tissue uptake at 4 h ([1]; stomach, Uptake in stomach): 0.43 ± 0.16 %ID/g
tissue uptake at 24 h ([1]; stomach, Uptake in stomach): 0.17 ± 0.07 %ID/g
tissue uptake at 72 h ([1]; stomach, Uptake in stomach): 0.08 ± 0.02 %ID/g
tissue uptake at 120 h ([1]; stomach, Uptake in stomach): 0.04 ± 0.02 %ID/g
tissue uptake at 1 h ([1]; testes, 100 ug, Uptake in testes, 1 h blocked (co-injected with 100 µg [D-Phe6,Leu-NHEt13,des-Met14]Bombesin(6-14))): 0.3 ± 0.16 %ID/g
tissue uptake at 24 h ([1]; testes, Uptake in testes): 0.02 ± 0.01 %ID/g
tissue uptake at 72 h ([1]; testes, Uptake in testes): 0.02 %ID/g
tissue uptake at 120 h ([1]; testes, Uptake in testes): 0.01 %ID/g
Uptake in lungs (PC-3 tumor-bearing mice; [3]): 0.52 ± 0.08 %ID/g
Uptake in muscle (PC-3 tumor-bearing mice; [3]): 0.14 ± 0.03 %ID/g
Tumor/blood uptake ratio (PC-3 tumor-bearing mice; 1 h post-injection): 15.9 ± 1.15
Uptake in adrenal glands (PC-3 tumor-bearing mice; 1 h post-injection): 1.22 ± 0.38 %ID/g
Uptake in blood (PC-3 tumor-bearing mice; 1 h post-injection): 0.69 ± 0.06 %ID/g
Uptake in bone (PC-3 tumor-bearing mice; 1 h post-injection): 0.14 ± 0.05 %ID/g
Uptake in brain (PC-3 tumor-bearing mice; 1 h post-injection): 0.03 ± 0.00 %ID/g
Uptake in liver (PC-3 tumor-bearing mice; 1 h post-injection): 0.40 ± 0.05 %ID/g
Uptake in lungs (PC-3 tumor-bearing mice; 1 h post-injection): 0.69 ± 0.12 %ID/g
Uptake in testes (PC-3 tumor-bearing mice; 1 h post-injection): 0.23 ± 0.04 %ID/g
Uptake in adrenal glands (PC-3 tumor-bearing mice; 4 h post-injection): 1.02 ± 0.33 %ID/g
Uptake in brain (PC-3 tumor-bearing mice; 4 h post-injection): 0.03 ± 0.02 %ID/g
Uptake in heart (PC-3 tumor-bearing mice; 4 h post-injection): 0.06 ± 0.06 %ID/g
Uptake in liver (PC-3 tumor-bearing mice; 4 h post-injection): 0.23 ± 0.07 %ID/g
Uptake in lungs (PC-3 tumor-bearing mice; 4 h post-injection): 0.23 ± 0.11 %ID/g
Uptake in muscle (PC-3 tumor-bearing mice; 4 h post-injection): 0.03 ± 0.01 %ID/g
Uptake in testes (PC-3 tumor-bearing mice; 4 h post-injection): 0.06 ± 0.05 %ID/g
Uptake in heart (PC-3 tumor-bearing mice; 24 h post-injection): 0.03 ± 0.00 %ID/g
Uptake in spleen (PC-3 tumor-bearing mice; 24 h post-injection): 0.12 ± 0.02 %ID/g
Uptake in adrenal glands (PC-3 tumor-bearing mice; 72 h post-injection): 0.41 ± 0.06 %ID/g
Uptake in kidneys (PC-3 tumor-bearing mice; 72 h post-injection): 0.52 ± 0.10 %ID/g
Uptake in large intestine (PC-3 tumor-bearing mice; 72 h post-injection): 0.23 ± 0.04 %ID/g
Uptake in lungs (PC-3 tumor-bearing mice; 72 h post-injection): 0.06 ± 0.03 %ID/g
Uptake in pancreas (PC-3 tumor-bearing mice; 72 h post-injection): 1.03 ± 0.30 %ID/g
Uptake in small intestine (PC-3 tumor-bearing mice; 72 h post-injection): 0.09 ± 0.03 %ID/g
Uptake in large intestine (PC-3 tumor-bearing mice; 120 h post-injection): 0.09 ± 0.02 %ID/g
Uptake in lungs (PC-3 tumor-bearing mice; 120 h post-injection): 0.03 ± 0.03 %ID/g
Uptake in small intestine (PC-3 tumor-bearing mice; 120 h post-injection): 0.03 ± 0.00 %ID/g
Uptake in large intestine (PC-3 tumor-bearing mice; mouse, in vivo, 100 ug, 1 h): 0.29 ± 0.08 %ID/g
uptake in PC-3 tumor xenografts cleared within 24 h (PC-3 tumor-bearing mice; relative to 1 h uptake): 37%
Compound: CC(C)C[C@H](NC(=O)[C@H](Cc1cnc[nH]1)N(C)C(=O)CNC(=O)[C@@H](NC(=O)[C@H](C)NC(=O)[C@H](Cc1c[nH]c2ccccc12)NC(=O)[C@H](CCC(N)=O)NC(=O)[C@@H](Cc1ccccc1)NC(=O)CN1CCC(NC(=O)CN2CCN(CC(=O)O)CCN(CC(=O)O)CCN(CC(=O)O)CC2)CC1)C(C)(C)C)C(=O)N1CSC[C@H]1C(N)=O [[^177Lu]Lu-LW01110, metal not drawn]
reduction of average pancreas uptake by co-injection of blocker (PC-3 tumor-bearing mice; [4]): 76%
reduction of average tumor uptake by co-injection of blocker (PC-3 tumor-bearing mice; [4]): 73%
